# According to patent US20230000835A1, “LYSINE-SPECIFIC HISTONE DEMETHYLASE INHIBITORS FOR THE TREATMENT OF MYELOPROLIFERATIVE NEOPLASMS” (Imago Biosciences, Inc., priority 2019, published 2023):
# Where a name gives a salt, the structure may show the parent alone.
# Key:
# [1] = test system: patients with myelofibrosis; test: Phase 2b clinical study in myelofibrosis: spleen volume at week 12; format: in vivo, human
# Description: A multi-center, open label, dose-range finding study to assess the safety, optimally effective dosing rules, steady-state pharmacokinetics and pharmacodynamics of Compound 1 orally once daily in patients with myelofibrosis was conducted in a Phase 1/2a study. • Primary objectives were to evaluate, in MF patients the effect of Compound 1 on: Safety and tolerability • Pharmacokinetics (Phase 1/2a only) • Reduction in spleen volume
# This study initiated as a Phase 1/2a study assessing the safety of the starting dose, an 85 day duration of treatment, and the pharmacokinetic and pharmacodynamic effects of Compound 1, with transition to a Phase 2b study incorporating changes supported by the earlier pharmacokinetic and pharmacodynamic studies and safety assessments. This study consisted of two treatment periods: the Initial Treatment Period (ITP), followed by the Additional Treatment Period (ATP). Patients commenced enrolment in the Phase 2b portion of the study, in which the ITP has been extended such that patients were treated daily for 169 days. The ATP, also extended, offered treatment to qualifying patients for an additional 169 days.
# Initial Treatment Period. During the ITP, patients initially returned for study assessments twice weekly for the first week (ITP Days 0, 3 and 7); post-dosing of 3 patients at the new Ds, the DSMC convened to assess the necessity of the Day 3 visit. Patients returned weekly for the next 7 weeks (ITP Days 14, 21, 28, 35, 42, 49 and 56), at least bi-weekly for 8 weeks (ITP Days 70, 84, 98 and 112) and then monthly for 8 weeks (ITP Days 140 and 168). It was anticipated that by Week 8 (Day 56) patients will have achieved a stable dose, with weekly titrations no longer necessary. For the exceptional patient whose dose had not stabilized, weekly visits continued at the PI's discretion (note: bi-weekly visits may also continue post Day 112). On Days 84 and 168, patients underwent abdominal magnetic resonance imaging (MRI), or computerized tomography (CT) if the patient was not a candidate for MRI. On Day 168, bone marrow sampling was also required. […]
# [2] = test system: platelet count; test: Clinical study: platelet count titration and peripheral blood counts; format: in vivo, human
# From the text: Dosing was tailored using platelet count as a biomarker for the effect of bomedemstat activity on megakaryocyte function and activity. The megakaryocytes, the cell in bone marrow and elsewhere that make platelets, are central to the pathogenesis of myelofibrosis and essential thrombocythemia. In both conditions, somatic mutations in bone marrow stem cells result in mature megakaryocytes that produce excess platelets and biologically active proteins that alter the bone marrow niche as well as spill into the circulation resulting in symptoms characteristic of these conditions such as itching and fatigue.
# Dosing of such a treatment can be made more precise by titrating the dose to lower the platelet count to a specific range.
# In the Phase 1/2a portion of the study, patients started at the presumed sub-therapeutic dose of 0.25 mg/kg/d. Dose-adjustments were made weekly (the lifespan of a human platelet) with dose-titration, either upward or downward, contingent on platelet values at the time of evaluation. Upward titrations were made in increments of 0.125 or 0.0625 mg/kg/d as shown below. Downward titrations were made in decrements of 50% of the current dose. […] The titration target platelet count expected to be associated with most efficacious therapeutic effect was ≥50,000 to <100,000 μL (50-100×10^9/L). The Phase 1/2a titration and re-challenge rules based on weekly evaluation of platelet counts are noted below in Table 1.
# A dose-response curve was subsequently generated that provided a titration algorithm to adjust dose to achieve a target platelet count of between 50,000-75,000 platelets per microliter (k/uL), devised with a view to minimizing the probability of severe thrombocytopenia. Excluding both the highest and lowest doses (total daily doses of 4 mg and 100 mg), the mean total daily dose of Compound 1 needed to achieve a platelet count in the target range was 78.3 mg (S.D. 13.8, range 53-90 mg) or the equivalent of approximately 0.7 to 1.2 mg/kg/d. Accordingly, to enable patients to reach more quickly the optimal dose while still maintaining an adequate safety margin, a new Compound 1 starting dose of 0.5 mg/kg QD was selected for all patients entering the Phase 2B portion of the study. The titration and re-challenge rules were also modified in association with this new target (Table 2).
# Subsequent to amending the dosing algorithm, a re-analysis of dosing, response and safety was conducted based on the experience with the first sixteen patients. The mean dose needed to achieve and safely maintain a patient in the range of the target platelet count (the “therapeutic dose”) was 63.8 mg/d or 0.85 mg/kg/d (assuming an average weight of 75 kg). […] In a Phase 3 study, the starting dose is anticipated to be 40 mg with one or two additional dose adjustments made in the subsequent 4-6 weeks.
# [3] = Phase 2b patients at Week 12, n=14
smiles,measurement,setting,value
"CN1CCN(C(=O)[C@H](CCCN[C@@H]2C[C@H]2c2ccc(F)cc2)NC(=O)c2ccc(-n3ccnn3)cc2)CC1 [Compound 1, N-[(2S)-5-{[(1R, 2S)-2-(4-fluorophenyl)cyclopropyl]amino}-1-(4-methylpiperazin-1-yl)-1-oxopentan-2-yl]-4-(1H-1,2,3-triazol-1-yl)benzamide, bis-tosylate salt]",patients with a reduction of spleen volume of ≥20%,[1]; [3],29%
same,patients with a reduction of spleen volume of ≥35%,[1]; [3],14%
same,median change of spleen volume to Wk 12,"[1]; Phase 2b patients, n=14",−15%
same,effect on platelet counts,[2]; on treatment,reduced platelet counts in all patients
same,lymphocytes counts,[2]; on treatment,unchanged
same,monocyte counts,[2]; on treatment,generally modestly elevated
same,peripheral granulocyte counts,[2]; on treatment,lower on treatment
same,platelet counts after cessation of treatment,[2]; washout,rebounded robustly
